# In patent US7902373B2 (Pfizer Inc, priority 2006, dated 2011):
# Molecular target: human recombinant H-PGDS (Homo sapiens, UniProt O60760)
# Assay: Fluorescence intensity h-PGDS TBA enzyme assay
# Format: biochemical
# Details: Examples up to 622 (and 3a, 3b)
# Chain of human recombinant H-PGDS (O60760 whole entry): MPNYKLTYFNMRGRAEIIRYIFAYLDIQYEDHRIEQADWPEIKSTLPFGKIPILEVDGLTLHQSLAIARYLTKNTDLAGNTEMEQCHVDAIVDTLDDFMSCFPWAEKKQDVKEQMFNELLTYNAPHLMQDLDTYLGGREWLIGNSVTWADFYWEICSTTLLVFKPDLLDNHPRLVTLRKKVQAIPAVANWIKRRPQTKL
row,IC50,Structure (SMILES)
1,8.08 nM,"CC(C)(CN1CCC(NC(=O)c2ccc(-c3cccc(F)c3)nc2)CC1)NC(=O)OC(C)(C)C [Example 268, tert-Butyl {2-[4-({[6-(3-fluorophenyl)pyridin-3-yl]carbonyl}amino)piperidin-1-yl]-1,1-dimethylethyl}carbamate]"
2,3.5 nM,"CN(CCCN1CCC(NC(=O)c2ccc(-c3cccc(F)c3)nc2)CC1)C(=O)OC(C)(C)C [Example 269, tert-Butyl {3-[4-({[6-(3-fluorophenyl)pyridin-3-yl]carbonyl}amino)piperidin-1-yl]propyl}methylcarbamate]"
3,0.507 nM,"Cc1c(CN2CCC(NC(=O)c3ccc(-c4cccc(F)c4)nc3)CC2)c(=O)n(C)c(=O)n1C [Example 270, 6-(3-Fluorophenyl)-N-{1-[(1,3,6-trimethyl-2,4-dioxo-1,2,3,4-tetrahydropyrimidin-5-yl)methyl]piperidin-4-yl}nicotinamide]"
4,5.62 nM,"CCN(CC)C(=O)c1ccc(CN2CCC(NC(=O)c3ccc(-c4cccc(F)c4)nc3)CC2)cc1 [Example 271, N-(1-{4-[(Diethylamino)carbonyl]benzyl}piperidin-4-yl)-6-(3-fluorophenyl)nicotinamide]"
5,0.816 nM,"O=C(NC1CCN(Cc2ccc[nH]c2=O)CC1)c1ccc(-c2cccc(F)c2)nc1 [Example 272, 6-(3-Fluorophenyl)-N-{1-[(2-oxo-1,2-dihydropyridin-3-yl)methyl]piperidin-4-yl}nicotinamide]"
6,1.11 nM,"CN(C)CCCOc1ccccc1CN1CCC(NC(=O)c2ccc(-c3cccc(F)c3)nc2)CC1 [Example 273, N-(1-{2-[3-(Dimethylamino)propoxy]benzyl}piperidin-4-yl)-6-(3-fluorophenyl)nicotinamide]"
7,2.57 nM,"CCn1nc(C)c(CN2CCC(NC(=O)c3ccc(-c4cccc(F)c4)nc3)CC2)c1C [Example 274, N-{1-[(1-Ethyl-3,5-dimethyl-1H-pyrazol-4-yl)methyl]piperidin-4-yl}-6-(3-fluorophenyl)nicotinamide]"
8,5.49 nM,"O=C(NC1CCN(Cc2cnn(-c3ccc(F)cc3)c2)CC1)c1ccc(-c2cccc(F)c2)nc1 [Example 275, 6-(3-Fluorophenyl)-N-(1-{[1-(4-fluorophenyl)-1H-pyrazol-4-yl]methyl}piperidin-4-yl)nicotinamide]"
9,0.743 nM,"CCn1cc(CN2CCC(NC(=O)c3ccc(-c4cccc(F)c4)nc3)CC2)c(C)n1 [Example 276, N-{1-[(1-Ethyl-3-methyl-1H-pyrazol-4-yl)methyl]piperidin-4-yl}-6-(3-fluorophenyl)nicotinamide]"
10,5.72 nM,"CN(C)CC1(CN2CCC(NC(=O)c3ccc(-c4cccc(F)c4)nc3)CC2)CCCC1 [Example 277, N-[1-({1-[(Dimethylamino)methyl]cyclopentyl}methyl)piperidin-4-yl]-6-(3-fluorophenyl)nicotinamide]"
11,4.17 nM,"CC(C)(C)OC(=O)CCCN1CCC(NC(=O)c2ccc(-c3cccc(F)c3)nc2)CC1 [Example 279, tert-Butyl 4-[4-({[6-(3-fluorophenyl)pyridin-3-yl]carbonyl}amino)piperidin-1-yl]butanoate]"
12,0.851 nM,"CS(=O)(=O)Nc1ccc(CN2CCC(NC(=O)c3ccc(-c4cccc(F)c4)nc3)CC2)cc1 [Example 280, 6-(3-Fluorophenyl)-N-(1-{4-[(methylsulfonyl)amino]benzyl}piperidin-4-yl)nicotinamide]"
13,1.8 nM,"CC(C)(C)OC(=O)NCCCN1CCC(NC(=O)c2ccc(-c3cccc(F)c3)nc2)CC1 [Example 281, tert-Butyl {3-[4-({[6-(3-fluorophenyl)pyridin-3-yl]carbonyl}amino)piperidin-1-yl]propyl}carbamate]"
14,0.629 nM,"CNS(=O)(=O)c1ccc(CN2CCC(NC(=O)c3ccc(-c4cccc(F)c4)nc3)CC2)cc1 [Example 282, 6-(3-Fluorophenyl)-N-(1-{4-[(methylamino)sulfonyl]benzyl}piperidin-4-yl)nicotinamide]"
15,0.5 nM,"Cc1cccc(CN2CCC(NC(=O)c3ccc(-c4cccc(F)c4)nc3)CC2)n1 [Example 283, 6-(3-Fluorophenyl)-N-{1-[(6-methylpyridin-2-yl)methyl]piperidin-4-yl}nicotinamide]"
16,1.43 nM,"CCOC(=O)Cn1ccc2cc(CN3CCC(NC(=O)c4ccc(-c5cccc(F)c5)nc4)CC3)ccc21 [Example 284, Ethyl (5-{[4-({[6-(3-fluorophenyl)pyridin-3-yl]carbonyl}amino)piperidin-1-yl]methyl}-1H-indol-1-yl)acetate]"
17,1.53 nM,"COc1ccccc1C1(CN2CCC(NC(=O)c3ccc(-c4cccc(F)c4)nc3)CC2)CCOCC1 [Example 285, 6-(3-Fluorophenyl)-N-(1-{[4-(2-methoxyphenyl)tetrahydro-2H-pyran-4-yl]methyl}piperidin-4-yl)nicotinamide]"
18,1.21 nM,"COc1cccc(C2(CN3CCC(NC(=O)c4ccc(-c5cccc(F)c5)nc4)CC3)CCOCC2)c1 [Example 286, 6-(3-Fluorophenyl)-N-(1-{[4-(3-methoxyphenyl)tetrahydro-2H-pyran-4-yl]methyl}piperidin-4-yl)nicotinamide]"
19,3 nM,"Cc1c(CN2CCC(NC(=O)c3ccc(-c4cccc(F)c4)nc3)CC2)cnn1C [Example 287, N-{1-[(1,5-dimethyl-1H-pyrazol-4-yl)methyl]piperidin-4-yl}-6-(3-fluorophenyl)nicotinamide]"

row,IC50,Structure (SMILES)
1,1.25 nM,"O=C(NC1CCN(Cc2ccc3nsnc3c2)CC1)c1ccc(-c2cccc(F)c2)nc1 [Example 288, N-[1-(2,1,3-Benzothiadiazol-5-ylmethyl)piperidin-4-yl]-6-(3-fluorophenyl)nicotinamide]"
2,2.09 nM,"O=C(NC1CCN(Cc2cnc(-c3ccccc3)s2)CC1)c1ccc(-c2cccc(F)c2)nc1 [Example 289, 6-(3-Fluorophenyl)-N-{1-[(2-phenyl-1,3-thiazol-5-yl)methyl]piperidin-4-yl}nicotinamide]"
3,0.843 nM,"O=C(NC1CCN(Cc2ccc3ncccc3c2)CC1)c1ccc(-c2cccc(F)c2)nc1 [Example 290, 6-(3-Fluorophenyl)-N-[1-(quinolin-6-ylmethyl)piperidin-4-yl]nicotinamide]"
4,1.17 nM,"CCOc1cccc(CN2CCC(NC(=O)c3ccc(-c4cccc(F)c4)nc3)CC2)c1 [Example 291, N-[1-(3-Ethoxybenzyl)piperidin-4-yl]-6-(3-fluorophenyl)nicotinamide]"
5,0.465 nM,"O=C(NC1CCN(Cc2ccccc2OC(F)F)CC1)c1ccc(-c2cccc(F)c2)nc1 [Example 292, N-{1-[2-(Difluoromethoxy)benzyl]piperidin-4-yl}-6-(3-fluorophenyl)nicotinamide]"
6,0.592 nM,"CC(CCC#N)(CN1CCC(NC(=O)c2ccc(-c3cccc(F)c3)nc2)CC1)c1ccccc1 (stereo not drawn) [Example 293, N-[1-(4-Cyano-2-methyl-2-phenylbutyl)piperidin-4-yl]-6-(3-fluorophenyl)nicotinamide]"
7,1.76 nM,"O=C(NC1CCN(Cc2c[nH]cn2)CC1)c1ccc(-c2cccc(F)c2)nc1 [Example 294, 6-(3-Fluorophenyl)-N-[1-(1H-imidazol-4-ylmethyl)piperidin-4-yl]nicotinamide]"
8,0.506 nM,"COc1ccc(F)cc1CN1CCC(NC(=O)c2ccc(-c3cccc(F)c3)nc2)CC1 [Example 295, N-[1-(5-Fluoro-2-methoxybenzyl)piperidin-4-yl]-6-(3-fluorophenyl)nicotinamide]"
9,1.4 nM,"Cc1nc[nH]c1CN1CCC(NC(=O)c2ccc(-c3cccc(F)c3)nc2)CC1 [Example 296, 6-(3-Fluorophenyl)-N-{1-[(4-methyl-1H-imidazol-5-yl)methyl]piperidin-4-yl}nicotinamide]"
10,1.25 nM,"COc1cc(CN2CCC(NC(=O)c3ccc(-c4cccc(F)c4)nc3)CC2)cc(OC)c1 [Example 297, N-[1-(3,5-Dimethoxybenzyl)piperidin-4-yl]-6-(3-fluorophenyl)nicotinamide]"
11,0.939 nM,"CC(C)(C)CCN1CCC(NC(=O)c2ccc(-c3cccc(F)c3)nc2)CC1 [Example 298, N-[1-(3,3-Dimethylbutyl)piperidin-4-yl]-6-(3-fluorophenyl)nicotinamide]"
12,0.308 nM,"O=C(NC1CCN(Cc2ccccc2Cl)CC1)c1ccc(-c2cccc(F)c2)nc1 [Example 299, N-[1-(2-Chlorobenzyl)piperidin-4-yl]-6-(3-fluorophenyl)nicotinamide]"
13,0.362 nM,"O=C(NC1CCN(Cc2ncc[nH]2)CC1)c1ccc(-c2cccc(F)c2)nc1 [Example 300, 6-(3-Fluorophenyl)-N-[1-(1H-imidazol-2-ylmethyl)piperidin-4-yl]nicotinamide]"
14,1.16 nM,"O=C(NC1CCN(CCCc2ccccc2)CC1)c1ccc(-c2cccc(F)c2)nc1 [Example 301, 6-(3-Fluorophenyl)-N-[1-(3-phenylpropyl)piperidin-4-yl]nicotinamide]"
15,0.636 nM,"Cc1cc(CN2CCC(NC(=O)c3ccc(-c4cccc(F)c4)nc3)CC2)ccc1F [Example 302, N-[1-(4-Fluoro-3-methylbenzyl)piperidin-4-yl]-6-(3-fluorophenyl)nicotinamide]"
16,0.662 nM,"N#Cc1cc(CN2CCC(NC(=O)c3ccc(-c4cccc(F)c4)nc3)CC2)ccc1F [Example 303, N-[1-(3-Cyano-4-fluorobenzyl)piperidin-4-yl]-6-(3-fluorophenyl)nicotinamide]"
17,2.11 nM,"O=C(NC1CCN(Cc2ccc3[nH]ccc3c2)CC1)c1ccc(-c2cccc(F)c2)nc1 [Example 304, 6-(3-Fluorophenyl)-N-[1-(1H-indol-5-ylmethyl)piperidin-4-yl]nicotinamide]"
18,2.7 nM,"COc1cc(C)cc(OC)c1CN1CCC(NC(=O)c2ccc(-c3cccc(F)c3)nc2)CC1 [Example 305, N-[1-(2,6-Dimethoxy-4-methylbenzyl)piperidin-4-yl]-6-(3-fluorophenyl)nicotinamide]"
19,2.71 nM,"CCOc1cc(OC)ccc1CN1CCC(NC(=O)c2ccc(-c3cccc(F)c3)nc2)CC1 [Example 306, N-[1-(2-Ethoxy-4-methoxybenzyl)piperidin-4-yl]-6-(3-fluorophenyl)nicotinamide]"

row,Structure (SMILES),IC50
1,"CC(C)(C)OCCN1CCC(NC(=O)c2ccc(-c3cccc(F)c3)nc2)CC1 [Example 278, N-[1-(2-tert-Butoxyethyl)piperidin-4-yl]-6-(3-fluorophenyl)nicotinamide]",5.01 nM
